From patent publication US7705009B2, “4-aminopyrimidine-5-thione derivatives” (Hoffman-La Roche Inc., priority 2005, dated 2010)

Experiments:
human cyclin B-CDK1 = human cyclin B-CDK1 (Homo sapiens, UniProt P06493); experiment: CDK1 HTRF kinase assay (Ki measurement); assay type: biochemical; conditions: ATP at 3x Km
Protocol: (§1) To determine inhibition of Cdk4, Cdk2 and Cdk1 activity, kinase assays were conducted using FlashPlate™ assays (NEN™-Life Science Products). FlashPlate assays were performed using recombinant human cyclin B-CDK1, human cyclin E-CDK2 or human cyclin D1-CDK4 complexes. GST-cyclinE (GST-cycE), CDK2, GST-cyclinB (GST-cycB), CDK1, GST-CDK4 and cyclin D1 (cycD1) cDNA clones in baculovirus vectors were provided by Dr. W. Harper at the Baylor College of Medicine, Houston, Tex.
(§2) Alternatively, inhibition activity may be measured using Ki. […] These were done in 96-well format and read in 384-well plate format. The assays were run at 3× their respective Kms for ATP.
Twenty microliters were added to the wells of a 96-well plate. […] Blank wells without CDK4 were included. The plates were incubated at 37° C. for 30 minutes with shaking. […] After 30 minutes at 37° C., 15 μl/well of 3 nM Lance-Eu-W1024 labeled anti-rabbit IgG and 60 nM Allophycocyanin conjugated anti-His6 (PerkinElmer Life Sciences) in 25 mM Hepes, pH 7.0, 0.5 mg/ml BSA were added. Following a one hour incubation at 37 deg C., 35 μl of each well, in duplicate, were transferred to 384-well black plates. The plates were read using either ViewLux or Victor V readers (PerkinElmer Life Sciences) using an excitation wavelength of 340 nm and dual emission wavelengths of 615 nm and 665 nm. […] For ATP competitive inhibitors, the Ki values were calculated according to the following equation: Ki=IC50/(1+S/Km) where S refers to the substrate concentration and Km refers to the Michaelis-Menten constant.
(§3) The CDK1 and CDK2 assays were similarly run except for small differences in reagent and protein concentrations:
The compound and enzyme buffers for both assays contained 10 mM MgCl2. […] CDK1 at a reagent concentration of 0.15 ng/ul and CDK2 at a reagent concentration of 0.06 ng/ul were used.

human cyclin D1-CDK4 = human cyclin D1-CDK4 (Homo sapiens, UniProt P11802); experiment: CDK4 HTRF kinase assay (Ki measurement); assay type: biochemical; conditions: ATP at 3x Km
human cyclin D1-CDK4, sequence (P11802 whole entry): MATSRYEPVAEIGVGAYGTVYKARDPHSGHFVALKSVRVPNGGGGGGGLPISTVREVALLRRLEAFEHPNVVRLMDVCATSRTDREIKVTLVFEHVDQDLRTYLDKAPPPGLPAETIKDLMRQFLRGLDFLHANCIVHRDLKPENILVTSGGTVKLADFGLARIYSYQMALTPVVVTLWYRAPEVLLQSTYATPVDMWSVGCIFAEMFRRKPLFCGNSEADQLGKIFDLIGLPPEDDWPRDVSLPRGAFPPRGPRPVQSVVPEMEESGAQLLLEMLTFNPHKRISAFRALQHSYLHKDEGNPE
human cyclin D1-CDK4, sequence (P24385 whole entry partner): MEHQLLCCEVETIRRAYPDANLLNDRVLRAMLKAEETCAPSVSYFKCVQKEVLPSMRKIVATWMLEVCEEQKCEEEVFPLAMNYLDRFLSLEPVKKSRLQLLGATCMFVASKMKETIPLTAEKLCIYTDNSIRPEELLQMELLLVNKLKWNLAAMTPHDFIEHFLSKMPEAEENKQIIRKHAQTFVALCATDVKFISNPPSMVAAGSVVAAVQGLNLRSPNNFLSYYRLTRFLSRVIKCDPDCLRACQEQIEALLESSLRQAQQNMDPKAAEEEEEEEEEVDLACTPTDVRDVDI
Protocol: To determine inhibition of Cdk4, Cdk2 and Cdk1 activity, kinase assays were conducted using FlashPlateTM assays (NENTM-Life Science Products). […] W. Harper at the Baylor College of Medicine, Houston, Tex. Proteins were co-expressed in High FiveTM insect cells and the complex was purified on glutathione Sepharose resin (Pharmacia, Piscataway, N.J.) as previously described (Harper, J. W. et al. Cell 1993, 75, 805-816). A 6×-Histidine tagged […]) was used as the substrate for the cycD1-CDK4, cycB-CDK1 and the cycE-CDK2 assays (the expression plasmid was provided by Dr. Veronica Sullivan, Department of Molecular Virology, Roche Research Centre, Welwyn Garden City, United Kingdom). The Rb protein is a natural substrate for phosphorylation by CDK4, CDK2 and CDK1 (see Herwig and Strauss Eur. J. Biochem. Vol. 246 (1997) pp. 581-601 and the references cited therein). Alternatively, inhibition activity may be measured using Ki. Using the protein constructs described above in Example 19A above, CDK1, CDK2, and CDK4 HTRF assays were set up. These were done in 96-well format and read in 384-well plate format. The assays were run at 3× their respective Kms for ATP. In the CDK4 assay, test compounds were diluted to 3× their final concentrations in 25 mM Hepes, pH 7.0, 6.25 mM MgCl2, 1.5 mM DTT, 135 μM ATP. The DMSO concentration was no greater than 4.76%. Twenty microliters were added to the wells of a 96-well plate. The kinase reaction was initiated by the addition of 40 μl/well of a solution containing 0.185 μM Rb and 2.25 μg/ml CDK4 in 25 mM Hepes, pH 7.0, 6.25 mM MgCl2, 0.003% Tween-20, 0.3 mg/ml BSA, 1.5 mM DTT. Blank wells without CDK4 were included. The plates were incubated at 37° C. for 30 minutes with shaking. The kinase reaction was terminated by the addition of 15 μl/well of 1.6 uM anti-phospho-Rb ([…]) antibody (Cell Signaling Inc.) in 25 mM Hepes, pH 7.0, 24 mM EDTA, 0.2 mg/ml BSA. After 30 minutes at 37° C., 15 μl/well of 3 nM Lance-Eu-W1024 labeled anti-rabbit IgG and 60 nM Allophycocyanin conjugated anti-His6 (PerkinElmer Life Sciences) in 25 mM Hepes, pH 7.0, 0.5 mg/ml BSA were added. Following a one hour incubation at 37 deg C., 35 μl of each well, in duplicate, were transferred to 384-well black plates. The plates were read using either ViewLux or Victor V readers (PerkinElmer Life Sciences) using an excitation wavelength of 340 nm and dual emission wavelengths of 615 nm and 665 nm. IC50 values (the concentration of test compounds reducing the assay control fluorescence read-out by 50%) were first calculated from net readings at 665 nm, normalized for europium readings at 615 nm. For ATP competitive inhibitors, the Ki values were calculated according to the following equation: […]

[1] = test system: HCT116 colorectal carcinoma cell line; experiment: Tetrazolium dye proliferation assay (MTT assay); assay type: cell-based; conditions: Homo sapiens, HCT-116, HCT116 cells
Protocol: Proliferation was evaluated by the tetrazolium dye assay according to the procedure of Denizot and Lang (Denizot, F. and Lang, R. J Immunol Methods 1986, 89, 271-277). The cell line used was HCT116, a colorectal carcinoma cell line obtained from the American Type Cell Culture Collection (ATCC; Rockville, Md.). The cells were grown in McCoy's 5A medium supplemented with 10% FCS and L-glutamine.
Cells were plated at the appropriate seeding density to give logarithmic growth over the course of the assay in a 96-well tissue culture plate. Plates were incubated overnight at 37° C. in a humidified incubator with 5% CO2. The next day, test compounds were serially diluted to four times the final concentration in the appropriate medium containing 1.2% DMSO. One-fourth final volume of each dilution was added in duplicate to the plates containing cells. The same volume of 1.2% DMSO in medium was added to a row of “control wells” such that the final concentration of DMSO in each well was 0.3%. Wells to which no cells were added served as the “blank.” Wells to which no inhibitor was added served as “no inhibitor control.” The plates were) returned to the incubator, and at set time points (determined by their growth curves) plates were analyzed as described below.
3-(4,5-dimethylthiazole-2-yl)-2,5-diphenyl-2H-tetrazolium bromide (thiazolyl blue; MTT; Sigma) was added to each well to yield a final concentration of 1 mg/ml. Plates were returned to the incubator for 2.5-3 hours at 37° C. The MTT-containing medium was removed and the resulting formazan metabolite was solubilized in 100% ethanol with shaking for 15 minutes at room temperature. Absorbance readings were taken in a microtiter plate reader (Dynatech and Molecular Devices plate readers were used interchangeably) at a wavelength of 570 nm with a 650 nm reference. Percent inhibition (% INH) is calculated by subtracting the absorbance of the blank well from all wells, then subtracting the ratio of the average absorbance of each test duplicate (SAVE) by the average of the controls (CAVE) from 1.00. The final number is then multiplied by 100 (% INH=(1.00−SAVE/CAVE)×100). The concentration at which 50% inhibition of cell proliferation is obtained (the IC50) is determined from the linear regression of a plot of the logarithm of the concentration versus percent inhibition.

human cyclin E-CDK2 = human cyclin E-CDK2 (Homo sapiens, UniProt P24941); experiment: CDK2 HTRF kinase assay (Ki measurement); assay type: biochemical; conditions: HTRF assay, ATP at 3x Km; read-out: Ki CDK2
Protocol: as §1, §2
Twenty microliters were added to the wells of a 96-well plate. […] Blank wells without CDK4 were included. The plates were incubated at 37° C. for 30 minutes with shaking. […] After 30 minutes at 37° C., 15 μl/well of 3 nM Lance-Eu-W1024 labeled anti-rabbit IgG and 60 nM Allophycocyanin conjugated anti-His6 (PerkinElmer Life Sciences) in 25 mM Hepes, pH 7.0, 0.5 mg/ml BSA were added. Following a one hour incubation at 37 deg C., 35 μl of each well, in duplicate, were transferred to 384-well black plates. The plates were read using either ViewLux or Victor V readers (PerkinElmer Life Sciences) using an excitation wavelength of 340 nm and dual emission wavelengths of 615 nm and 665 nm.
as §3
The compound and enzyme buffers for both assays contained 10 mM MgCl2.

human cyclin B-CDK1, sequence (P06493 whole entry): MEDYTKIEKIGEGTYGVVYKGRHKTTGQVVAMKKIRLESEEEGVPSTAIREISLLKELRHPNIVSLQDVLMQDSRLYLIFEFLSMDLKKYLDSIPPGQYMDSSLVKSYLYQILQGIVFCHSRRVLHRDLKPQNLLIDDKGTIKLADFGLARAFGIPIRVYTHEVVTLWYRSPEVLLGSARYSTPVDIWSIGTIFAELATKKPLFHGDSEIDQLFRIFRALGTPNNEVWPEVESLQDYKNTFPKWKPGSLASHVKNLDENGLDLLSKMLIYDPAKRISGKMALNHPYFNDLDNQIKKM
human cyclin B-CDK1, sequence (P14635 whole entry partner): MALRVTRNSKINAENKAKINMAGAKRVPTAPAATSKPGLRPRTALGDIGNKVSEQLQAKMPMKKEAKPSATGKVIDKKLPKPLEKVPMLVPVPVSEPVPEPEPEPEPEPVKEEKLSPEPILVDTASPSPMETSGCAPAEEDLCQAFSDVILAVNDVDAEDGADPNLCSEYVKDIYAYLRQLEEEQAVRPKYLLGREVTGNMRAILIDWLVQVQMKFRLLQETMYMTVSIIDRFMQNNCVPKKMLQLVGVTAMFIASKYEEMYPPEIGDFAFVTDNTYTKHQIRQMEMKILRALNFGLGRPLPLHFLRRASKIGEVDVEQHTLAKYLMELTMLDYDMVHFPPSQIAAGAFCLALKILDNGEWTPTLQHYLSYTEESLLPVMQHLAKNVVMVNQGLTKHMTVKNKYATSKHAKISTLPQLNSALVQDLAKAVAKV

SMILES | Ki (human cyclin B-CDK1) | Ki (human cyclin D1-CDK4) | IC50 [1] | Ki (human cyclin E-CDK2)
COc1ccc(F)c(F)c1C(=S)c1cnc(NC2CCN(S(C)(=O)=O)CC2)nc1N [Example 1, [4-Amino-2-(1-methanesulfonyl-piperidin-4-ylamino)-pyrimidin-5-yl]-(2,3-difluoro-6-methoxy-phenyl)-methanethione] | 0.13 nM | 0.17 nM | 20 nM | –
COc1ccc(F)c(F)c1C(=S)c1cnc(N[C@H]2CC[C@H](NS(C)(=O)=O)CC2)nc1N [Example 2, N-{4-[4-Amino-5-(2,3-difluoro-6-methoxy-thiobenzoyl)-pyrimidin-2-ylamino]-cyclohexyl}methanesulfonamide] | 0.27 nM | 0.6 nM | 12 nM | 0.18 nM
COc1ccc(F)c(F)c1C(=S)c1cnc(N[C@H]2CC[C@H](N(C)S(C)(=O)=O)CC2)nc1N [Example 3, N-{4-[4-Amino-5-(2,3-difluoro-6-methoxy-thiobenzoyl)-pyrimidin-2-ylamino]-cyclohexyl}-N-methylmethanesulfonamide] | 0.42 nM | 1.33 nM | 13 nM | 0.27 nM
COc1ccc(F)c(F)c1C(=S)c1cnc(NC2CCN(S(N)(=O)=O)CC2)nc1N [Example 4, 4-[4-Amino-5-(2,3-difluoro-6-methoxy-thiobenzoyl)-pyrimidin-2-ylamino]-piperidine-1-sulfonic acid amide] | < 3 nM | < 1 nM | 3 nM | < 1 nM
CS(=O)(=O)N1CCC(Nc2ncc(C(=S)c3c(F)c(F)cc4ncoc34)c(N)n2)CC1 [Example 7, [4-Amino-2-(1-methanesulfonyl-piperidin-4-ylamino)-pyrimidin-5-yl]-(5,6-difluoro-benzooxazol-7-yl)-methanethione] | 6 nM | 5 nM | – | 16 nM
COc1ccc(F)cc1C(=S)c1cnc(NCCCNS(C)(=O)=O)nc1N [Example 8, N-{3-[4-Amino-5-(5-fluoro-2-methoxy-thiobenzoyl)-pyrimidin-2-ylamino]-propyl}-methanesulfonamide] | 89 nM | 37 nM | – | 65 nM
COc1ccc(F)c(F)c1C(=S)c1cnc(NC2CCN(S(=O)(=O)CCCN3CCOCC3)CC2)nc1N [Example 9, {4-Amino-2-[1-(3-morpholin-4-yl-propane-1-sulfonyl)-piperidin-4-ylamino]-pyrimidin-5-yl}(2,3-difluoro-6-methoxy-phenyl)-methanethione] | 14 nM | – | – | 1 nM
COc1ccc(F)c(F)c1C(=S)c1cnc(NC2CCN(S(=O)(=O)c3ccccn3)CC2)nc1N [Example 10, {4-Amino-2-[1-(pyridine-2-sulfonyl)-piperidin-4-ylamino]-pyrimidin-5-yl}-(2,3-difluoro-6-methoxy-phenyl)-methanethione] | 3 nM | – | – | 1 nM
CS(=O)(=O)N1CCC(Nc2ncc(C(=S)c3cccs3)c(N)n2)CC1 [Example 11, [4-Amino-2-(1-methanesulfonyl-piperidin-4-ylamino)-pyrimidin-5-yl]-thiophen-2-yl-methanethione] | 43 nM | 10 nM | – | 12 nM
COc1ccc(F)c(F)c1C(=S)c1cnc(Nc2ccc(S(C)(=O)=O)cc2)nc1N [Example 12, [4-Amino-2-(4-methanesulfonyl-phenylamino)-pyrimidin-5-yl]-(2,3-difluoro-6-methoxy-phenyl)-methanethione] | 3 nM | 7 nM | – | 1 nM
CS(=O)(=O)N1CCC(Nc2ncc(C(=S)c3ccccc3)c(N)n2)CC1 [Example 16, [4-Amino-2-(1-methanesulfonyl-piperidin-4-ylamino)-pyrimidin-5-yl]-phenyl-methanethione] | 27 nM | 15 nM | – | 10 nM
COc1ccc(F)cc1C(=S)c1cnc(NC2CCN(C(=O)OC(C)(C)C)CC2)nc1N [Example 17, 4-[4-Amino-5-(5-fluoro-2-methoxy-thiobenzoyl)-pyrimidin-2-ylamino]-piperidine-1-carboxylic acid tert-butyl ester] | 261 nM | – | – | 195 nM
COc1ccc(F)c(F)c1C(=S)c1cnc(NC2CCN(S(C)(=O)=O)C2)nc1N (centres unmarked) [Example 18, [4-Amino-2-(1-methanesulfonyl-pyrrolidin-3-ylamino)-pyrimidin-5-yl]-(2,3-difluoro-6-methoxy-phenyl)-methanethione] | – | 2.8 nM | – | 1 nM
